Source: patent publication US20070128669A1, “Serum-free expansion of cells in culture” (Institute for Chemical Genomics, priority 2005, published 2007)

Key:
Stat3 signaling pathway = test: pSTAT3-TA-Luc luciferase reporter assay in ESCs; format: cell-based, mouse; conditions: 24 hours exposure
Description: Transfection and Luciferase assay. ESCs were cultured in 96-well cell culture dishes coated with a 0.1% aqueous gelatin solution and transfected with 0.2 μg/well of pSTAT3-TA-Luc (CLONTECH), using Lipofectamine 2000 (Invitrogen). After 6 hours, cells were washed and exposed to either IQ-1 at the indicated doses, or LIF, for 24 hours. Transfection efficiencies were normalized with pRL-null luciferase plasmid. Luciferase assays were performed with the DUAL-Luciferase Reporter Assay System (Promega).

ESCs [1] = test: Embryoid body formation and differentiation of long term cultured ESCs; format: cell-based, mouse
Description: FIG. 5. […] FIG. 5A, long term cultured ESCs were induced to form embryoid bodies in suspension cultures for 3 days. ESCs cultured in media in the presence of Wnt3A and IQ-1 (4 μg/ml) for 48 days were able to form embryoid bodies (Left). ESCs lose their ability to form embryoid bodies after 3 days of culturing in the absence IQ-1 (Right). FIG. 5B, IQ-1 treated ESCs derived embryoid bodies were cultured (adherence culture) for 7-14 days to induce further differentiation. […] FIG. 5C, model depicting the proposed mechanism of action of IQ-1.
Immunocytochemistry and Antibodies. Cells were fixed for 20 min with 4% paraformaldehyde in PBS. Immunostaining was carried out using standard protocols. Primary antibodies were used at the following dilutions: anti α-fetoprotein mouse monoclonal (R&D systems, 10 ug/ml), anti-Actin, Smooth muscle Ab-1 mouse monoclonal (LAB VISION, 1:1), anti-GATA4 mouse monoclonal (SANTA CRUZ, 1:100), anti-MAP (microtubule associated protein)2 mouse monoclonal (Chemicon, 1:200), βIII-tubulin mouse monoclonal (Chemicon, 1:200), anti-Oligodendrocyte mouse monoclonal (Chemicon, 1:1,000). Secondary antibodies were Alexa Fluor 488 or 594 goat anti-mouse IgG (H+L)(Invitrogen, 1:200). Cells were imaged using an Olympus IX 70 microscope with ×40-200 magnification.

ESCs [2] = test: Long term feeder-free culture of ESCs in serum-free (15% KSR) media; format: cell-based, mouse
Description: FIG. 7. […] ESCs were cultured in 15% KSR, 4 μg/ml of IQ-1 and 100 ng/ml Wnt3a. ESCs were passaged 2-3 times per week at 1×10^5-1×10^6 cells per 6 cm dish and cells were counted.
FIG. 8. […] AP activity of ESCs cultured for 7 days in IQ-1 containing media supplemented with 15% FCS or 15% KSR. […] (Error bars represent ±S.D.)
FIG. 9. […] Over the 42-day culture period, ESCs cultured in the media in the presence of IQ-1 and Wnt3a maintain expression of the pluripotency markers, (a) Nanog, (b) Oct3/4 and (c) Rex-1. The expression level on day 0 was set as 1.
Cell culture. ESCs, D3ES (ATCC CRL-1934) were maintained on Mitomycin C treated MEFs in mouse ESC medium containing DMEM (Invitrogen) supplemented with 15% FBS (Invitrogen), 0.1 mM MEM nonessential amino acids (Invitrogen), 0.1 mM 2-mercaptoethanol (Sigma), 2 mM L-glutamine (Invitrogen) and 1,000 U/ml LIF (CHEMICON). To remove MEFs, cells were collected by trypsinization and plated on gelatin-coated culture dishes for 20 min. Non-adherent cells consisting mainly of ESCs were replated on gelatin-coated culture dishes again. Non-adherent cells were used for further experiments. P19 cells were cultured according to conditions recommended by the ATCC. Cells were incubated at 37° C. in a 5% CO2 incubator. Purified Wnt3a was purchased (R&D Systems).

P19 cells = test: Real-time RT-PCR of stem cell maintenance genes in P19 cells; format: cell-based; conditions: Wnt3a and IQ-1 vs Wnt3a+DMSO, from the control gene β-actin
Description: Real-time RT-PCR. Total RNA was isolated and reverse-transcribed using SuperScript III (Invitrogen). Real-time RT-PCR (Sybr Green; BioRad) was performed using with the gene-specific primers: […]
In certain experiments, 2 μg of extracted total RNA was reverse-transcribed using SuperScript III RT-PCR system (Invitrogen) according to the manufacturer's protocol. 1 μl of cDNA was amplified by PCR with one or more of the gene-specific primers of SEQ ID NOs:5-18 using optimized PCR cycles to obtain amplified reactions in the linear range.
In Table 1, above, the effects of IQ-1 treatment on genes associates with stem cell maintenance are shown, as measured by RT-PCR. The values are represented as ΔΔCT from the control gene β-actin.

[3] = tested on: TCF/β-catenin reporter in NIH-3T3 cells; test: TOPFLASH/FOPFLASH TCF/β-catenin reporter assay in NIH-3T3 cells; format: cell-based
Description: NIH-3T3 cells (wt), NIH-3T3 CBP(+/−) cells and NIH-3T3 p300(+/−) cells were transfected as described in (26). Briefly, cells were transfected with TOPFLASH or FOPFLASH, using Fugene6 (Roche Molecular Biochemicals). Transfection efficiencies were normalized with pRL-null luciferase plasmid. Luciferase assays were performed with the DUAL-Luciferase Reporter Assay System (Promega).
In certain experiments, NIH-3T3 cells (wt), NIH-3T3 CBP(+/−) cells and NIH-3T3 p300(+/−) cells were transfected as described in (26). Briefly, cells were transfected with TOPFLASH or FOPFLASH, using Fugene6 (Roche Molecular Biochemicals). Transfection efficiencies were normalized with pRL-null luciferase plasmid. Luciferase assays were performed with the DUAL-Luciferase Reporter Assay System (Promega).
The Wnt/β-catenin reporter constructs TOPFLASH and FOPFLASH in wild-type NIH-3T3 cells (wt), NIH-3T3 CBP(+/−) cells and NIH-3T3 p300(+/−) cells were used to determine whether IQ-1, by targeting the PR72/130 subunit with PP2A, was selectively increasing β-catenin's usage of CBP as a coactivator at the expense of p300, thereby maintaining the ESCs in the undifferentiated state (FIG. 4A). A point mutant constitutively translocating β-catenin (pt-mut β-cat) was used to stimulate reporter activity (28).

[4] = stimulated with pt-mut β-catenin

## CC(=O)c1ccc(NN=C(C(N)=O)C2=NC(C)(C)Cc3ccccc32)cc1 [IQ-1]
Stat3 signaling pathway
  Stat3/luciferase expression: did not affect Stat3/luciferase expression
ESCs [1]; IQ-1 (4 μg/ml) and Wnt3a, after day 48
  pluripotency: embryoid body formation and differentiation to three germ layers: maintained the pluripotency of ESCs
ESCs [1]; removal of IQ-1
  time to loss of pluripotency after removal of IQ-1: ≤ 3 days
ESCs [2]; 15% KSR, Wnt3a 100 ng/ml plus IQ-1 4 μg/ml
  proliferation and expression of Oct4, Nanog and Rex1, combination of Wnt3a and IQ-1: allowed for proliferation and maintenance of pluripotency
ESCs [2]; IQ-1 in conjunction with purified Wnt3a, absence of serum
  time ESC proliferation and pluripotency maintained in culture: at least 48 days
ESCs [2]; KSR media, single agent
  maintenance of undifferentiated status of ESCs, agent alone: Neither Wnt3a nor IQ-1 alone was sufficient
P19 cells
  ΔΔCT MDR-1: 1.69
  ΔΔCT Oct4: 0.39
  ΔΔCT Sox-2: 4.31
  ΔΔCT c-myc: −2.01
[3]; NIH-3T3 cells
  Fopflash reporter activity: no effect
[3]; [4]
  TOPFLASH activity, NIH-3T3 CBP (+/−) cells: did not affect TOPFLASH or FOPFLASH activity
  TOPFLASH activity, wt NIH-3T3 cells: did not affect TOPFLASH or FOPFLASH activity
  increase in TOPFLASH activity, NIH-3T3 p300 (+/−) cells: 2-3 fold
